Measured values from ChEMBL document CHEMBL5608245, “Inhibition of the EphA2-Sam/Ship2-Sam Association through Peptide Ligands: Studying the Combined Effect of Charge and Aromatic Character” (J Med Chem, 2024).
Active and inactive are the calls of the source. The rule behind the calls is not given here.

Tests used:
[1] = biological target: Ephrin type-A receptor 2 (Homo sapiens) (UniProt P29317); test: Induction of EPHA2 receptor internalization in human PC-3 cells assessed as effect on EPHA2 protein level at 50 uM incubated for 4 hrs by Western blotting analysis; type: cell-based
[2] = biological target: Ephrin type-A receptor 2 (Homo sapiens) (UniProt P29317); test: Induction of EPHA2 receptor internalization in human PC-3 cells assessed as effect on EPHA2 protein level at 50 uM preincubated for 4 hrs followed by ephrinA1-Fc addition and measured after 2 hrs by Western blotting analysis; type: cell-based; conditions: time 6.0 hrs
PC-3 = test: Cytotoxicity against human PC-3 cells assessed as reduction in cell viability at 50 uM incubated for 4 hrs by crystal violet staining based assay; type: toxicity; conditions: pc-3, 4 h
NHDF = test: Cytotoxicity against human NHDF cells assessed as reduction in cell viability at 50 uM incubated for 4 hrs by crystal violet staining based assay; type: toxicity

Ephrin type-A receptor 2 (Homo sapiens), sequence (P29317 whole entry): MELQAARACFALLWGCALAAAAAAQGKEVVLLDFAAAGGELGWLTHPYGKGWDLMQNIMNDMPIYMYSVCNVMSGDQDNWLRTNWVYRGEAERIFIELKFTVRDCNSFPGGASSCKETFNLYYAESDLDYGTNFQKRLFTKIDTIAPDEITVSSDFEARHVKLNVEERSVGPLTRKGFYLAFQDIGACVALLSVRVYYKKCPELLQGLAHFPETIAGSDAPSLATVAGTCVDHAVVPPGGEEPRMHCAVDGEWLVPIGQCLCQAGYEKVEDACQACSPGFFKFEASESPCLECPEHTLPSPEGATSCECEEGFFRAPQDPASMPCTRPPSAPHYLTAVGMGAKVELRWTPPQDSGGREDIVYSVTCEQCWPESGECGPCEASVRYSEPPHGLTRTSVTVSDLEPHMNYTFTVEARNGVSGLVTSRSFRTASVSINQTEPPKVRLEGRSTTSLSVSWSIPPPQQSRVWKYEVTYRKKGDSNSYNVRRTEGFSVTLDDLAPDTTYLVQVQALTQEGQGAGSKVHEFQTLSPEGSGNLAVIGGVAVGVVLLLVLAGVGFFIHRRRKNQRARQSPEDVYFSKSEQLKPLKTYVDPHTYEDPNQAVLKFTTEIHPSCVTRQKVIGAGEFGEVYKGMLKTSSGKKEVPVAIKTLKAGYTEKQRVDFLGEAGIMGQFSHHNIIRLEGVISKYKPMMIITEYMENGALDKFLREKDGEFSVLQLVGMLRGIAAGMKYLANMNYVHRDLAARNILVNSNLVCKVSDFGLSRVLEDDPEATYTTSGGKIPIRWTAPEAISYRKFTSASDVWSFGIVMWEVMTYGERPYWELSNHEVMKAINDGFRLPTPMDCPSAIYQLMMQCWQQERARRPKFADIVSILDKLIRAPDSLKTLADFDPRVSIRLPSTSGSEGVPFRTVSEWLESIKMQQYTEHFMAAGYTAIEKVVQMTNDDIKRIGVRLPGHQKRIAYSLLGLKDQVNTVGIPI

Compound: CSCC[C@H](NC(=O)[C@H](Cc1ccccc1)NC(=O)[C@H](CCCCN)NC(=O)[C@H](CC(=O)O)NC(=O)[C@H](CCC(=O)O)NC(=O)[C@H](CCCNC(=N)N)NC(=O)[C@H](CCCNC(=N)N)NC(=O)[C@@H](NC(=O)[C@@H]1CCCN1C(=O)CNC(=O)CNC(=O)CNC(=O)[C@H](CCC(N)=O)NC(=O)[C@@H]1CCCN1C(=O)[C@H]1CCCN1C(=O)[C@H](CCCNC(=N)N)NC(=O)[C@H](CCCNC(=N)N)NC(=O)[C@H](CCCNC(=N)N)NC(=O)[C@H](CCC(N)=O)NC(=O)[C@H](CCCNC(=N)N)NC(=O)[C@H](CCCNC(=N)N)NC(=O)[C@H](CCCCN)NC(=O)[C@H](CCCCN)NC(=O)[C@H](CCCNC(=N)N)NC(=O)CNC(=O)[C@H](C)NC(C)=O)[C@@H](C)O)C(=O)N[C@@H](Cc1ccc(O)cc1)C(=O)N[C@@H](Cc1ccccc1)C(N)=O
- Activity [1]: inactive
- Activity [2]: inactive

Compound: CC[C@H](C)[C@H](NC(=O)[C@H](CCCNC(=N)N)NC(=O)[C@H](CCCCN)NC(=O)CNC(=O)CNC(=O)[C@H](CCC(N)=O)NC(=O)[C@@H]1CCCN1C(=O)[C@@H]1CCCN1C(=O)[C@@H](CCCNC(=N)N)NC(=O)[C@@H](CCCNC(=N)N)NC(=O)[C@@H](CCCNC(=N)N)NC(=O)[C@@H](CCC(N)=O)NC(=O)[C@@H](CCCNC(=N)N)NC(=O)[C@@H](CCCNC(=N)N)NC(=O)[C@@H](CCCCN)NC(=O)[C@@H](CCCCN)NC(=O)[C@@H](CCCNC(=N)N)NC(=O)CNC(=O)[C@H](C)NC(C)=O)C(=O)N[C@@H](C)C(=O)N[C@@H](Cc1ccc(O)cc1)C(=O)N[C@@H](CCCCN)C(=O)N[C@@H](CCCNC(=N)N)C(=O)N[C@H](C(=O)N[C@@H](C)C(=O)N[C@@H](Cc1ccc(O)cc1)C(=O)N[C@@H](CCCCN)C(=O)N[C@@H](CCCNC(=N)N)C(=O)N[C@H](C(=O)N[C@@H](C)C(=O)N[C@@H](Cc1ccc(O)cc1)C(N)=O)[C@@H](C)CC)[C@@H](C)CC
- Activity [1]: inactive
- Activity [2]: inactive

Compound: CC(=O)N[C@@H](C)C(=O)NCC(=O)N[C@H](CCCNC(=N)N)C(=O)N[C@H](CCCCN)C(=O)N[C@H](CCCCN)C(=O)N[C@H](CCCNC(=N)N)C(=O)N[C@H](CCCNC(=N)N)C(=O)N[C@H](CCC(N)=O)C(=O)N[C@H](CCCNC(=N)N)C(=O)N[C@H](CCCNC(=N)N)C(=O)N[C@H](CCCNC(=N)N)C(=O)N1CCC[C@H]1C(=O)N1CCC[C@H]1C(=O)N[C@@H](CCC(N)=O)C(=O)NCC(=O)NCC(=O)N[C@@H](CCCCN)C(=O)N[C@@H](CCCNC(=N)N)C(=O)N[C@@H](CCCCN)C(=O)N[C@@H](C)C(=O)N[C@@H](Cc1ccc(O)cc1)C(=O)N[C@@H](CCCCN)C(=O)N[C@@H](CCCNC(=N)N)C(=O)N[C@@H](CCCCN)C(=O)N[C@@H](C)C(=O)N[C@@H](Cc1ccc(O)cc1)C(=O)N[C@@H](CCCCN)C(=O)N[C@@H](CCCNC(=N)N)C(=O)N[C@@H](CCCCN)C(=O)N[C@@H](C)C(=O)N[C@@H](CO)C(N)=O
- Activity [1]: inactive
- Activity [2]: inactive

Compound: CC(=O)N[C@@H](C)C(=O)NCC(=O)N[C@@H](CCCNC(=N)N)C(=O)N[C@@H](CCCCN)C(=O)N[C@@H](CCCCN)C(=O)N[C@@H](CCCNC(=N)N)C(=O)N[C@@H](CCCNC(=N)N)C(=O)N[C@@H](CCC(N)=O)C(=O)N[C@@H](CCCNC(=N)N)C(=O)N[C@@H](CCCNC(=N)N)C(=O)N[C@@H](CCCNC(=N)N)C(=O)N1CCC[C@H]1C(=O)N1CCC[C@H]1C(=O)N[C@@H](CCC(N)=O)C(=O)NCC(=O)NCC(=O)N[C@@H](CCCCN)C(=O)N[C@@H](CCCNC(=N)N)C(=O)N[C@@H](CCCCN)C(=O)N[C@@H](C)C(=O)N[C@@H](Cc1ccc(O)cc1)C(=O)N[C@@H](CCCCN)C(=O)N[C@@H](CCCNC(=N)N)C(=O)N[C@@H](CCCCN)C(=O)N[C@@H](C)C(=O)N[C@@H](Cc1ccc(O)cc1)C(=O)N[C@@H](CCCCN)C(=O)N[C@@H](CCCNC(=N)N)C(=O)N[C@@H](CCCCN)C(=O)N[C@@H](C)C(=O)N[C@@H](CO)C(N)=O
- Activity (PC-3): Toxic
- Activity (NHDF): Toxic
